{
  "source": "the supplement of paper PMC10307832",
  "experiment_in_all_cases": "relative viability (nuclei count vs DMSO), 5 days (fraction); higher = more cells survive",
  "key": {"[1]": {"compound": "Cc1ccc(Nc2nccc(N(C)c3ccc4c(C)n(C)nc4c3)n2)cc1S(N)(=O)=O [Pazopanib] + CC(=O)c1c(C)c2cnc(Nc3ccc(N4CCNCC4)cn3)nc2n(C2CCCC2)c1=O [Palbociclib] (partner 0.5 µM)", "summary_of_the_method": "(§1)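 Medians of duplicate plates are given as relative viability. That measure is the nuclei count in treated wells divided by the count in vehicle wells. Counts were taken on 4× images of lung cancer cell lines in 1536-well plates, 5 days after pin-tool dosing the day after seeding with one drug alone or a fixed anchor-drug dose plus five library-drug doses (not always all listed) in √10 steps.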"}, "[2]": {"compound": "Cc1ccc(Nc2nccc(N(C)c3ccc4c(C)n(C)nc4c3)n2)cc1S(N)(=O)=O [Pazopanib] + COc1cccc2cc(-c3nc([C@H]4CC[C@H](C(=O)O)CC4)n4ncnc(N)c34)[nH]c12 [OSI-027] (partner 0.5 µM)", "summary_of_the_method": "as §1"}, "[3]": {"compound": "Cc1ccc(C(=O)Nc2ccc(CN3CCN(C)CC3)c(C(F)(F)F)c2)cc1C#Cc1cnc2cccnn12 [Ponatinib] + N=C(N)NC(=N)NCCc1ccccc1 [Phenformin] (partner 250 µM)", "summary_of_the_method": "as §1"}, "[4]": {"compound": "Cc1ccc(Nc2nccc(N(C)c3ccc4c(C)n(C)nc4c3)n2)cc1S(N)(=O)=O [Pazopanib] + CCNC(=O)c1noc(-c2cc(C(C)C)c(O)cc2O)c1-c1ccc(CN2CCOCC2)cc1 [Luminespib] (partner 0.01 µM)", "summary_of_the_method": "as §1"}},
  "data": [
    {"cell line": "UMC-11", "values": [
      {"measurement": "relative viability", "setting": "[1]; first compound 0.01 µM", "result": 0.305},
      {"measurement": "relative viability", "setting": "[1]; first compound 0.03162 µM", "result": 0.347},
      {"measurement": "relative viability", "setting": "[1]; first compound 0.1 µM", "result": 0.31},
      {"measurement": "relative viability", "setting": "[1]; first compound 0.3162 µM", "result": 0.358},
      {"measurement": "relative viability", "setting": "[1]; first compound 1 µM", "result": 0.32},
      {"measurement": "relative viability", "setting": "[2]; first compound 0.01 µM", "result": 0.501},
      {"measurement": "relative viability", "setting": "[2]; first compound 0.03162 µM", "result": 0.544},
      {"measurement": "relative viability", "setting": "[2]; first compound 0.1 µM", "result": 0.442},
      {"measurement": "relative viability", "setting": "[2]; first compound 0.3162 µM", "result": 0.504},
      {"measurement": "relative viability", "setting": "[2]; first compound 1 µM", "result": 0.541},
      {"measurement": "relative viability", "setting": "[3]; first compound 0.002 µM", "result": 0.305},
      {"measurement": "relative viability", "setting": "[3]; first compound 0.006325 µM", "result": 0.33},
      {"measurement": "relative viability", "setting": "[3]; first compound 0.06325 µM", "result": 0.366},
      {"measurement": "relative viability", "setting": "[3]; first compound 0.2 µM", "result": 0.317},
      {"measurement": "relative viability", "setting": "[4]; first compound 0.01 µM", "result": 1.08},
      {"measurement": "relative viability", "setting": "[4]; first compound 0.03162 µM", "result": 0.994},
      {"measurement": "relative viability", "setting": "[4]; first compound 0.1 µM", "result": 1.06},
      {"measurement": "relative viability", "setting": "[4]; first compound 0.3162 µM", "result": 0.98},
      {"measurement": "relative viability", "setting": "[4]; first compound 1 µM", "result": 1.09}
    ]}
  ]
}
